Test results as given in patent publication US12691101B2, “Compound and method for preventing or treating of respiratory diseases comprising the same as an active ingredient” (YONSEI UNIVERSITY, UNIVERSITY - INDUSTRY FOUNDATION (UIF), priority 2019, dated 2026).
Read-outs that look alike come from different tables or passages of the source.

Target: T1, human wild-type (WT)-pendrin (Homo sapiens, UniProt O43511)
T1 construct: expressed in transfected cells
T1 sequence (O43511 1-780): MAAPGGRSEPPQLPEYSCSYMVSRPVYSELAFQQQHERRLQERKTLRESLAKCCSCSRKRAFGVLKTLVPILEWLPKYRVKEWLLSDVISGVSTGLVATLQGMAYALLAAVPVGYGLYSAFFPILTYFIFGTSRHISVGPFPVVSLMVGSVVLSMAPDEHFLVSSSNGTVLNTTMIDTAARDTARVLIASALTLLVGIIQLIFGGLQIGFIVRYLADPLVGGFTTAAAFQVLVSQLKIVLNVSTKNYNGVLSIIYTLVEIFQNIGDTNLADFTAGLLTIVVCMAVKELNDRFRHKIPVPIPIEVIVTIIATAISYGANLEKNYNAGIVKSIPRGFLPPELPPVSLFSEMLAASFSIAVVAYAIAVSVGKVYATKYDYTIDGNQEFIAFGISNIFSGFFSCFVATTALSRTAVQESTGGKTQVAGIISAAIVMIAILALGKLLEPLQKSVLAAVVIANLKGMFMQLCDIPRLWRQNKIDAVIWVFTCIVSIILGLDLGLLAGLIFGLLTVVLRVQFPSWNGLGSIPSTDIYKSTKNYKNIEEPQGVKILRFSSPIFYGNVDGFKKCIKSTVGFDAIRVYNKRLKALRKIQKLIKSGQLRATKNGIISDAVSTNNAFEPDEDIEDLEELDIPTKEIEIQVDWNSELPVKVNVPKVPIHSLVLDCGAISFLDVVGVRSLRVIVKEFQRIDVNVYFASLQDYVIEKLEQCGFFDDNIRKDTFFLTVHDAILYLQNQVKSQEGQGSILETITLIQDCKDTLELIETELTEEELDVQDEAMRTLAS
Assay: Pendrin-mediated Cl^−/I^− exchange activity, YFP fluorescence in CHO-K1 cells
Format: cell-based
Details: for inhibition at 30 µM: read-out: Pendrin inhibitory activity at 30 μM (%); for IC50: compounds showing pendrin inhibitory activity of 50% or more at 30 μM, read-out: IC50
Method: Chinese hamster ovary (CHO)-K1 cells were maintained in a DMEM medium containing 10% fetal bovine serum (FBS), 100 units/ml penicillin and 100 100 μg/ml streptomycin. CHO-K1 cells were stably transfected with pcDNA3.1 encoding halide sensor YFP-H148Q/I152L/F46L and human wild-type (WT)-pendrin. For distribution of primary culture of human nasal cavity epithelium (HNE) cells, passage-2 cells were seeded into transwell-transparent culture inserts with a pore size of 0.45 μm (Costar Co., Cambridge, MA) at a density of 2×10^5 cells/cm^2. The cells were maintained in a 1:1 mixture of Dulbecco's modified Eagle's medium (Lonza, Walkersville, MD) and bronchial epithelial growth medium (Lonza) supplemented with the following growth factors according to the manufacturer's instructions. After immersing the cells for the first 7 days, they were exposed to the apical air interface for the remainder of the culture period. After establishment of the air-liquid interface, the cells were used between 14 and 21 days. At all stages of culture, the cells were maintained at 37° C. under 5% CO2 in an air incubator.
CHO-K1 cells expressing human WT pendrin and YFP-F46L/H148Q/I152L were plated on a 96-well microplate at a density of 2×10^4 cells per well and cultured for 48 hours. Each well of the cell cultured 96-well plate was washed with PBS of 200 μL twice and was filled with HEPES buffer solution of 50 μL, respectively. […] After culturing at 37° C. for 10 minutes, the 96-well plate was positioned on FLUOstar Omega microplate reader (BMG Labtech, Ortenberg, Germany) for fluorescence analysis. By continuously (400 ms per point) recording fluorescence for 1 second (base line), each well was individually analyzed for pendrin-mediated I^− inflow, and then at 1 second, 50 μL of NaI-substituted HEPES buffer solution (NaI replacing NaCl) was added using a liquid injector and the YFP fluorescence was recorded for 5 seconds. The initial iodide inflow rate was determined from the initial slope of fluorescence by nonlinear regression, after injection the iodide (See FIG. 1).
For measurement of Cl^−/I^− exchange activity, YFP fluorescence was measured in pendrin and halide sensor YFP expressing CHO-K1 cells. Each well of the cell cultured 96-well plate was washed with PBS of 200 μL twice, and was filled with HEPES buffer solution (140 mM NaCl, 5 mM KCl, 1 mM MgCl2, 1 mM CaCl2, 10 mM glucose and 10 mM HEPES (pH 7.4)), respectively. […] After culturing at 37° C. for 10 minutes, the 96-well plate was positioned on FLUOstar Omega microplate reader (BMG Labtech, Ortenberg, Germany) for fluorescence analysis.
By continuously (400 ms per point) recording fluorescence for 1 second (base line), each well was individually analyzed for pendrin-mediated I^− inflow, and then at 1 second, 50 μL of NaI-substituted HEPES buffer solution (140 mM NaI, 5 mM KCl, 1 mM MgCl2, 1 mM CaCl2, 10 mM glucose and 10 mM HEPES (pH 7.4)) was added using a liquid injector and the YFP fluorescence was recorded for 5 seconds. The initial iodide inflow rate was determined from the initial slope of fluorescence by nonlinear regression, after injection the iodide.

| Structure (SMILES) | inhibition at 30 µM (CHO-K1, 30 μM) | further results |
| --- | --- | --- |
| COc1ccccc1C1=NC(=Cc2ccc(Br)s2)C(=O)O1 [F117, 4-((5-Bromothiophen-2-yl)methylene)-2-(2-methoxyphenyl)oxazol-5(4H)-one] | 2.3% | – |
| COC(=O)c1ccc(C2=NC(=Cc3ccco3)C(=O)O2)cc1 [F31, Methyl 4-(4-(furan-2-ylmethylene)-5-oxo-4,5-dihydrooxazol-2-yl)benzoate] | 4.2% | – |
| CCCc1ccc(C2=NC(=Cc3ccc[nH]3)C(=O)O2)cc1 [F143, 4-((1H-pyrrol-2-yl)methylene)-2-(4-propylphenyl)oxazol-5(4H)-one] | 87.4% | IC50: 5.3 ± 0.69 µM |
| CC(C)(C)c1ccc(C2=NC(=Cc3cc4ccccc4[nH]3)C(=O)O2)cc1 [F140, 4-((1H-indol-2-yl)methylene)-2-(4-(tert-butyl)phenyl)oxazol-5(4H)-one] | 3.3% | – |
| COC(=O)C(=Cc1ccc[nH]1)NC(=O)c1ccc(C(F)(F)F)cc1 [G15, Methyl 3-(1H-pyrrol-2-yl)-2-(4-(trifluoromethyl)benzamido)acrylate] | 3.4% | – |
| CC(=O)Nc1ccc(C2=NC(=Cc3ccc(-n4cncn4)cc3)C(=O)O2)cc1 [F134, N-(4-(4-(4-(1H-1,2,4-thiazol-1-yl)benzylidene)-5-oxo-4,5-dihydrooxazol-2-yl)phenyl)acetamide] | 3.4% | – |
| O=C(O)C(=Cc1cccs1)NC(=O)c1ccc(OC(F)F)cc1 [G39, 2-(4-(Difluoromethoxy)benzamido)-3-(thiophen-2-yl)acrylate] | 3.2% | – |
| CCCCCc1ccc(C2=NC(=Cc3ccco3)C(=O)O2)cc1 [F141, 4-(Furan-2-ylmethylene)-2-(4-pentylphenyl)oxazol-5(4H)-one] | 1.9% | – |
| CC(C)(C)OC(=O)C(=Cc1ccc[nH]1)NC(=O)c1ccc(C(C)(C)C)cc1 [G6, tert-butyl 2-(4-(tert-butyl)benzamido)-3-(1H-pyrrol-2-yl)acrylate] | 4.7% | – |
| COC(=O)C(=Cc1ccco1)NC(=O)c1ccc(C(C)(C)C)cc1 [G4, Methyl 2-(4-(tert-butyl)beznamido)-3-(furan-2-yl)acrylate] | 4.4% | – |
| CC(=O)n1cc(C=C2N=C(c3ccc(C(C)(C)C)cc3)OC2=O)c2ccccc21 [F81, 4-((1-Acetyl-1H-indol-3-yl)methylene)-2-(4-(tert-butyl)phenyl)oxazol-5 (4H)-one] | 3.4% | – |
| Cn1cccc1C=C1N=C(c2ccc(C(C)(C)C)cc2)OC1=O [F6, 2-(4-(tert-butyl)phenyl)-4-((1-methyl-1H-pyrrol-2-yl)methylene)oxazol-5 (4H)-one] | 3.7% | – |
| CC(=O)Nc1ccc(C2=NC(=Cc3ccc(N(C)CCCl)cc3)C(=O)O2)cc1 [F86, N-(4-(4-(4-((2-chloroethyl)(methyl)amino)benzylidene)-5-oxo-4,5-dihydrooxazol-2-yl)phenyl)acetamide] | – | inhibition at 30 µM (CHO-K1): 3.3% |
| COC(=O)C(=Cc1cccn1-c1ccccc1)NC(=O)c1ccc(C(C)(C)C)cc1 [G14, Methyl 2-(4-(tert-butyl)benzamido)-3-(1-phenyl-1H-pyrrol-2-yl)acrylate] | 2.5% | – |
| Cc1nn(-c2ccccc2)c(Cl)c1C=C1N=C(c2cccc(Br)c2)OC1=O [F71, 2-(3-Bromophenyl)-4-((5-chloro-3-methyl-1-phenyl-1H-pyrazol-4-yl)methylene)oxazol-5(4H)-one] | 4.4% | – |
| CC(C)(C)c1ccc(C(=O)NC(=Cc2ccc[nH]2)C(=O)O)cc1 [G7, 2-(4-(tert-butyl)benzamido)-3-(1H-pyrrol-2-yl)acrylate] | 82.1% | efficacy as pendrin inhibitor compared with F10: lower efficacy than F10; IC50: 6.8 ± 0.66 µM |
| Cn1cc(C=C2N=C(c3ccc(C(C)(C)C)cc3)OC2=O)cn1 [F39, 2-(4-(tert-butyl)phenyl)-4-((1-methyl-1H-pyrazol-4-yl)methylene)oxazol-5(4H)-one] | 58.8% | IC50: 25.8 ± 2.16 µM |
| CC(=O)Nc1ccc(C2=NC(=Cc3ccc(N(C)C)s3)C(=O)O2)cc1 [F108, N-(4-(4-((5-(dimethylamino)thiophen-2-yl)methylene)-5-oxo-4,5-dihydrooxazol-2-yl)phenyl) acetamide] | 2.3% | – |
